Results taken from US20150111860A1, “SUSPOEMULSION” (SUMITOMO CHEMICAL COMPANY, LIMITED, priority 2012, published 2015).
Where two headings read alike, the source gives them in different places.

Experiment: Solubility of ingredient (2) in 100 g of the oil phase (ingredient (1)) at 25° C. by HPLC
Format: physicochemical
Procedure: The solubility can be determined in the following manner. That is, an ingredient (2) is added to an ingredient (1), followed by mixing with stirring. After being left to stand in a constant temperature water bath at 25° C., the supernatant containing the ingredient (2) in a saturated state is isolated and filtered to obtain a solution, and then a prescribed amount of an internal standard fluid is added to prepare a sample liquid for analysis. Using the sample liquid for analysis, high-performance liquid chromatography is performed, thus enabling the measurement of the solubility.

[1] = oil phase composed of pyridalyl and Exxsol D110, 25° C.

| solubility in 100 g of the oil phase [g] | Structure (SMILES) | solubility in 100 g of the oil phase (oil phase composed of esfenvalerate and Solvesso 150, 25° C.) [g] | solubility in 100 g of the oil phase [1] [g] | solubility in 100 g of the oil phase (oil phase composed of tolclofos-methyl and Solvesso 150, 25° C.) [g] |
| --- | --- | --- | --- | --- |
| 0.394 | Cc1nn(C)c(Cl)c1C(=O)Nc1cccc2c1C(C)OC2(C)C (stereo not drawn) [furametpyr] | – | – | – |
| – | CN/C(=N\[N+](=O)[O-])NCc1cnc(Cl)s1 [clothianidin] | 0.003 | 0.009 | 0.002 |
| – | N#Cc1ccccc1NC(=O)c1snc(Cl)c1Cl [isotianil] | – | 0.020 | – |
| 0.003 | CCNc1nc(CC)c(C(=O)NC(C#N)c2cccs2)s1 (stereo not drawn) [ethaboxam] | – | – | – |
